The values that follow come from patent publication US11014911B2, “CDK2 inhibitors” (Pfizer Inc., priority 2019, dated 2021).

For this assay, the target named is CDK2/Cyclin E1 full length (Homo sapiens (Human), UniProt P24941). Kind of assay: CDK2/Cyclin E1 full length mobility shift assay. The class given is biochemical.
Take `CC[C@H](C)NC(=O)O[C@@H]1CC[C@H](c2cc(NC(=O)Cc3ccccc3S(N)(=O)=O)n[nH]2)C1` [Example 49]: the Ki (in general, a dissociation constant, usually derived from enzyme kinetics or from competition with a known ligand) worked out at 0.19 nM. As to `COc1cc(C(=O)Nc2cc([C@H]3CC[C@@H](OC(=O)N[C@@H](C)CC(F)(F)F)C3)[nH]n2)n(C)n1` [Example 94], the Ki amounted to 0.15 nM. As to `COc1cnc(CC(=O)Nc2cc([C@H]3CC[C@@H](OC(=O)N[C@@H](C)C4CC4)C3)[nH]n2)cn1` [Example 106], the Ki worked out at 0.76 nM. Consider `Cn1ncc(CC(=O)Nc2cc([C@H]3CC[C@@H](OC(=O)NC(C)(C)C)C3)[nH]n2)n1` [Example 110], for which the Ki is 0.29 nM. Take `CC(C)(C)NC(=O)O[C@@H]1CC[C@H](c2cc(NC(=O)Cc3cc(Cl)ccn3)n[nH]2)C1` [Example 115]: the Ki worked out at 0.23 nM. On to `CC1(NC(=O)O[C@@H]2CC[C@H](c3cc(NC(=O)Cc4cnc(C(F)(F)F)cn4)n[nH]3)C2)CC1` [Example 130], for which the Ki came out at 0.25 nM.

As for `Cc1cnc(CC(=O)Nc2cc([C@H]3CC[C@@H](OC(=O)NC4(C)CC4)C3)[nH]n2)cc1Cl` [Example 131], the Ki was found to be 0.2 nM.

`CC1(NC(=O)O[C@@H]2CC[C@H](c3cc(NC(=O)Cc4ccc5ncccc5n4)n[nH]3)C2)CC1` [Example 132]: the Ki came to 0.19 nM.

Take `CCCNC(=O)O[C@H]1CC[C@@H](c2cc(NC(=O)Cc3c[nH]cn3)n[nH]2)C1` [Example 165, (1S,3R)-3-{3-[(1H-imidazol-4-ylacetyl)amino]-1H-pyrazol-5-yl}cyclopentyl propylcarbamate]: the Ki turned out to be 2.28 nM. As for `CCCNC(=O)O[C@H]1CC[C@@H](c2cc(NC(=O)Cc3cn4ccccc4n3)n[nH]2)C1` [Example 191, (1S,3R)-3-{3-[(imidazo[1,2-a]pyridin-2-ylacetyl)amino]-1H-pyrazol-5-yl}cyclopentyl propylcarbamate], the figure is 3.33 nM.

In the case of `CCCNC(=O)O[C@H]1CC[C@@H](c2cc(NC(=O)Cc3cc(OC)ncc3O)n[nH]2)C1` [Example 193, (1S,3R)-3-(3-{[(5-hydroxy-2-methoxypyridin-4-yl)acetyl]amino}-1H-pyrazol-5-yl)cyclopentyl propylcarbamate], the Ki was determined as 0.41 nM. `CCCNC(=O)O[C@H]1CC[C@@H](c2cc(NC(=O)Cc3ccnc(OC)c3O)n[nH]2)C1` [Example 194, (1S,3R)-3-(3-{[(3-hydroxy-2-methoxypyridin-4-yl)acetyl]amino}-1H-pyrazol-5-yl)cyclopentyl propylcarbamate]: the inhibitory constant (Ki) turned out to be 0.8 nM. Consider `CCCNC(=O)O[C@@H]1CC[C@H](c2cc(NC(=O)c3ccnn3CCN(C)C)n[nH]2)C1` [Example 195, (1R,3S)-3-{3-[({1-[2-(dimethylamino)ethyl]-1H-pyrazol-5-yl}carbonyl)amino]-1H-pyrazol-5-yl}cyclopentyl propylcarbamate], for which the inhibition constant (Ki) amounted to 4.39 nM.

Take `CCCNC(=O)O[C@@H]1CC[C@H](c2cc(NC(=O)Cc3cccc4ncsc34)n[nH]2)C1` [Example 196, (1R,3S)-3-{3-[(1,3-benzothiazol-7-ylacetyl)amino]-1H-pyrazol-5-yl}cyclopentyl propylcarbamate]: the Ki was found to be 1.44 nM. For `CCCNC(=O)O[C@H]1CC[C@@H](c2cc(NC(=O)Cc3cn4c(C)csc4n3)n[nH]2)C1` [Example 199, (1S,3R)-3-(3-{[(3-methylimidazo[2,1-b][1,3]thiazol-6-yl)acetyl]amino}-1H-pyrazol-5-yl)cyclopentyl propylcarbamate], the Ki worked out at 3.45 nM. On to `CCCNC(=O)O[C@H]1CC[C@@H](c2cc(NC(=O)Cc3cn4c(C)c(C)sc4n3)n[nH]2)C1` [Example 200, (1S,3R)-3-(3-{[(2,3-dimethylimidazo[2,1-b][1,3]thiazol-6-yl)acetyl]amino}-1H-pyrazol-5-yl)cyclopentyl propylcarbamate], for which the Ki was determined as 2.87 nM. With `CCCNC(=O)O[C@@H]1CC[C@H](c2cc(NC(=O)Cc3ccccc3S(N)(=O)=O)n[nH]2)C1` [Example 204, (1R,3S)-3-(3-{[(2-sulfamoylphenyl)acetyl]-amino}-1H-pyrazol-5-yl)cyclopentyl propylcarbamate], the Ki was determined as 1.13 nM. Regarding `CCCNC(=O)O[C@@H]1CC[C@H](c2cc(NC(=O)Cc3ccc(C)cc3S(C)(=O)=O)n[nH]2)C1` [Example 207, (1R,3S)-3-[3-({[4-methyl-2-(methylsulfonyl)phenyl]acetyl}amino)-1H-pyrazol-5-yl]cyclopentyl propylcarbamate], the Ki stood at 0.66 nM.

For the molecule `CCCNC(=O)O[C@@H]1CC[C@H](c2cc(NC(=O)Cc3cc(C)ncc3S(C)(=O)=O)n[nH]2)C1` [Example 208, (1R,3S)-3-[3-({[2-methyl-5-(methylsulfonyl)pyridin-4-yl]acetyl}amino)-1H-pyrazol-5-yl]cyclopentyl propylcarbamate], the Ki was determined as 3.18 nM.

Consider `CCCNC(=O)O[C@@H]1CC[C@H](c2cc(NC(=O)Cc3ccccc3S(=O)(=O)NC)n[nH]2)C1` [Example 209, (1R,3S)-3-[3-({[2-(methylsulfamoyl)-phenyl]acetyl}amino)-1H-pyrazol-5-yl]cyclopentyl propylcarbamate], for which the Ki came to 1.21 nM. As for `CCCNC(=O)O[C@@H]1CC[C@H](c2cc(NC(=O)Cc3ccccc3S(=O)(=O)C3CC3)n[nH]2)C1` [Example 210, (1R,3S)-3-[3-({[2-(cyclopropylsulfonyl)-phenyl]acetyl}amino)-1H-pyrazol-5-yl]cyclopentyl propylcarbamate], the Ki turned out to be 3.8 nM.

Take `CCCNC(=O)O[C@@H]1CC[C@H](c2cc(NC(=O)Cc3ccccc3S(=O)(=O)C(C)C)n[nH]2)C1` [Example 211, (1R,3S)-3-[3-({[2-(propan-2-ylsulfonyl)phenyl]acetyl}amino)-1H-pyrazol-5-yl]cyclopentyl propylcarbamate]: the Ki is 4.87 nM. For `CCCNC(=O)O[C@@H]1CC[C@H](c2cc(NC(=O)Cc3ccc(COC)cc3S(C)(=O)=O)[nH]n2)C1` [Example 215, (1R,3S)-3-[5-({[4-(methoxymethyl)-2-(methylsulfonyl)phenyl]acetyl}amino)-1H-pyrazol-3-yl]cyclopentyl propylcarbamate], the Ki is 1.26 nM.

Regarding `Cn1ncc(CC(=O)Nc2cc([C@H]3CC[C@@H](OC(=O)NCCC(F)(F)F)C3)[nH]n2)n1` [Example 217, (1R,3S)-3-(3-{[(2-methyl-2H-1,2,3-triazol-4-yl)acetyl]amino}-1H-pyrazol-5-yl)cyclopentyl (3,3,3-trifluoropropyl)carbamate], the Ki was 2.22 nM. On to `O=C(Cc1nccs1)Nc1cc([C@H]2CC[C@@H](OC(=O)NCCC(F)(F)F)C2)[nH]n1` [Example 219, (1R,3S)-3-{3-[(1,3-thiazol-2-ylacetyl)amino]-1H-pyrazol-5-yl}cyclopentyl (3,3,3-trifluoropropyl)carbamate], for which the Ki stood at 3.81 nM. As for `Cc1cnc(CC(=O)Nc2cc([C@H]3CC[C@@H](OC(=O)NCCC(F)(F)F)C3)[nH]n2)cn1` [Example 220, (1R,3S)-3-(3-{[(5-methylpyrazin-2-yl)acetyl]amino}-1H-pyrazol-5-yl)cyclopentyl (3,3,3-trifluoropropyl)carbamate], the figure is 3.26 nM. For `Cc1cnc(CC(=O)Nc2cc([C@H]3CC[C@@H](OC(=O)NCCC(F)(F)F)C3)[nH]n2)s1` [Example 221, (1R,3S)-3-(3-{[(5-methyl-1,3-thiazol-2-yl)acetyl]amino}-1H-pyrazol-5-yl)cyclopentyl (3,3,3-trifluoropropyl)carbamate], the Ki was determined as 1.73 nM. As for `COc1cnc(CC(=O)Nc2cc([C@H]3CC[C@@H](OC(=O)NCCC(F)(F)F)C3)[nH]n2)cn1` [Example 222, (1R,3S)-3-(3-{[(5-methoxypyrazin-2-yl)acetyl]amino}-1H-pyrazol-5-yl)cyclopentyl (3,3,3-trifluoropropyl)carbamate], the figure is 2.93 nM; as for `COc1cnc(CC(=O)Nc2cc([C@H]3CC[C@@H](OC(=O)NCCC(F)(F)F)C3)[nH]n2)s1` [Example 223, (1R,3S)-3-(3-{[(5-methoxy-1,3-thiazol-2-yl)acetyl]amino}-1H-pyrazol-5-yl)cyclopentyl (3,3,3-trifluoropropyl)carbamate], 2.33 nM. For `COc1ccc(S(C)(=O)=O)c(CC(=O)Nc2cc([C@H]3CC[C@@H](OC(=O)NCCC(F)(F)F)C3)[nH]n2)c1` [Example 224, (1R,3S)-3-[3-({[5-methoxy-2-(methylsulfonyl)phenyl]acetyl}amino)-1H-pyrazol-5-yl]cyclopentyl (3,3,3-trifluoropropyl)carbamate], the Ki was 0.31 nM. Take `CCCN(CCC)C(=O)O[C@@H]1CC[C@H](c2cc(NC(=O)Cc3ccno3)n[nH]2)C1` [Example 225, (1R,3S)-3-{3-[(1,2-oxazol-5-ylacetyl)amino]-1H-pyrazol-5-yl}cyclopentyl dipropylcarbamate]: the inhibitory constant (Ki) came out at 2.67 nM. As to `CCNC(=O)O[C@@H]1CC[C@H](c2cc(NC(=O)Cc3ccc(F)cc3)n[nH]2)C1` [Example 228, (1R,3S)-3-(3-{[(4-fluorophenyl)acetyl]amino}-1H-pyrazol-5-yl)cyclopentyl ethylcarbamate], the Ki is 1.84 nM. For the molecule `CCNC(=O)O[C@@H]1CC[C@H](c2cc(NC(=O)Cc3cnc(C)s3)n[nH]2)C1` [Example 229, (1R,3S)-3-(3-{[(2-methyl-1,3-thiazol-5-yl)acetyl]amino}-1H-pyrazol-5-yl)cyclopentyl ethylcarbamate], the Ki was found to be 2.06 nM. With `CCNC(=O)O[C@@H]1CC[C@H](c2cc(NC(=O)Cc3cccc4scnc34)n[nH]2)C1` [Example 234, (1R,3S)-3-{3-[(1,3-benzothiazol-4-ylacetyl)amino]-1H-pyrazol-5-yl}cyclopentyl ethylcarbamate] the figure was 4.11 nM; with `CCNC(=O)O[C@@H]1CC[C@H](c2cc(NC(=O)Cc3cccc4ncsc34)n[nH]2)C1` [Example 235, (1R,3S)-3-{3-[(1,3-benzothiazol-7-ylacetyl)amino]-1H-pyrazol-5-yl}cyclopentyl ethylcarbamate], 2.33 nM. With `CCN(C)C(=O)O[C@@H]1CC[C@H](c2cc(NC(=O)Cc3ccno3)n[nH]2)C1` [Example 236, (1R,3S)-3-{3-[(1,2-oxazol-5-ylacetyl)amino]-1H-pyrazol-5-yl}cyclopentyl ethyl(methyl)carbamate], the Ki amounted to 3.16 nM.
